Assay results taken from US10040781B2, “Tank-binding kinase inhibitor compounds” (Gilead Sciences, Inc., priority 2014, dated 2018).

Key:
IKKε = IKKε (Homo sapiens (Human), UniProt Q14164); assay: IKKε TR-FRET enzymatic assay; type: biochemical; conditions: read-out: IKKe IC50
hJAK2 = hJAK2 (Homo sapiens (Human), UniProt O60674); assay: hJAK2 LANCE TR-FRET enzymatic assay; type: biochemical; conditions: read-out: JAK2 IC50
TBK1 = TBK1 (Homo sapiens (Human), UniProt Q9UHD2); assay: TBK1 TR-FRET enzymatic assay;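 note: phosphorylation of a biotinylated Ser/Thr peptide by purified full-length recombinant TBK1, read by TR-FRET after 240 min at 25 °C, IC50 is the geometric mean of at least four runs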
Chain of TBK1 (Q9UHD2 whole entry): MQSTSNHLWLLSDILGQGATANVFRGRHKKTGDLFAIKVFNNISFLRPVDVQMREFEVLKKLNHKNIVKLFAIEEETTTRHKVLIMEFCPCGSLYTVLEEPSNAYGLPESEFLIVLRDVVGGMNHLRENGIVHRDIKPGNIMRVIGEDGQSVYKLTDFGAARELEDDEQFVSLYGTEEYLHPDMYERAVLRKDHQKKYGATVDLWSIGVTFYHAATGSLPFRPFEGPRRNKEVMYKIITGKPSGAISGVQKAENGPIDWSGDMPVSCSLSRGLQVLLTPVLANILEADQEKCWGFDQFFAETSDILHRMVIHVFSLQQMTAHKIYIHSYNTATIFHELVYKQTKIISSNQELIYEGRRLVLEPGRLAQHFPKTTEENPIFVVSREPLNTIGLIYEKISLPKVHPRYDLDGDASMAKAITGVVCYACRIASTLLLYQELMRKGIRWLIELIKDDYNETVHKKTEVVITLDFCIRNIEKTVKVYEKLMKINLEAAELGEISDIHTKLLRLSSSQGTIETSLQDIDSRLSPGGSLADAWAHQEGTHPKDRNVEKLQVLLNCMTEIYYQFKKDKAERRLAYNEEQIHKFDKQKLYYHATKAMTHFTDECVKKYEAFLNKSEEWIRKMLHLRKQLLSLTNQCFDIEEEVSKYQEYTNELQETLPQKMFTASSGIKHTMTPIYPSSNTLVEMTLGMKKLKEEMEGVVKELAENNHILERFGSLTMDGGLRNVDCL

Chain of IKKε (Q14164 whole entry): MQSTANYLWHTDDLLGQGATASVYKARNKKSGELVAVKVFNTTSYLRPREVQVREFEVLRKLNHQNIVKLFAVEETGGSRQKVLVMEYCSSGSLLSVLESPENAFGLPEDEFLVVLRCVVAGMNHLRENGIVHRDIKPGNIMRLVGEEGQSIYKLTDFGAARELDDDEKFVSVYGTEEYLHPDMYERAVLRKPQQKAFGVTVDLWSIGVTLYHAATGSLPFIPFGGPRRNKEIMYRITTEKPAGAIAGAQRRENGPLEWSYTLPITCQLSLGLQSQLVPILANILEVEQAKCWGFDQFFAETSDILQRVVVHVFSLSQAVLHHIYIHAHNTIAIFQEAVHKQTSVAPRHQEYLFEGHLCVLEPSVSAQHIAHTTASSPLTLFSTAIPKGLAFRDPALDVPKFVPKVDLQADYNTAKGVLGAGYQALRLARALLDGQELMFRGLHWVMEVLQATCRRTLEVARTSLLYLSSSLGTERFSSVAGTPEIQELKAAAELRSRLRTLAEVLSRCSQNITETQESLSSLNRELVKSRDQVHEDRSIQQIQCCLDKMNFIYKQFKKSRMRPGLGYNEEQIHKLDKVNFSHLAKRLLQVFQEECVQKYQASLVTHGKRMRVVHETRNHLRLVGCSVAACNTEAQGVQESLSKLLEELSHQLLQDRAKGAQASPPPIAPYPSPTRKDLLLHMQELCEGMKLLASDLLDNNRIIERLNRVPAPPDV
Chain of hJAK2 (O60674 whole entry): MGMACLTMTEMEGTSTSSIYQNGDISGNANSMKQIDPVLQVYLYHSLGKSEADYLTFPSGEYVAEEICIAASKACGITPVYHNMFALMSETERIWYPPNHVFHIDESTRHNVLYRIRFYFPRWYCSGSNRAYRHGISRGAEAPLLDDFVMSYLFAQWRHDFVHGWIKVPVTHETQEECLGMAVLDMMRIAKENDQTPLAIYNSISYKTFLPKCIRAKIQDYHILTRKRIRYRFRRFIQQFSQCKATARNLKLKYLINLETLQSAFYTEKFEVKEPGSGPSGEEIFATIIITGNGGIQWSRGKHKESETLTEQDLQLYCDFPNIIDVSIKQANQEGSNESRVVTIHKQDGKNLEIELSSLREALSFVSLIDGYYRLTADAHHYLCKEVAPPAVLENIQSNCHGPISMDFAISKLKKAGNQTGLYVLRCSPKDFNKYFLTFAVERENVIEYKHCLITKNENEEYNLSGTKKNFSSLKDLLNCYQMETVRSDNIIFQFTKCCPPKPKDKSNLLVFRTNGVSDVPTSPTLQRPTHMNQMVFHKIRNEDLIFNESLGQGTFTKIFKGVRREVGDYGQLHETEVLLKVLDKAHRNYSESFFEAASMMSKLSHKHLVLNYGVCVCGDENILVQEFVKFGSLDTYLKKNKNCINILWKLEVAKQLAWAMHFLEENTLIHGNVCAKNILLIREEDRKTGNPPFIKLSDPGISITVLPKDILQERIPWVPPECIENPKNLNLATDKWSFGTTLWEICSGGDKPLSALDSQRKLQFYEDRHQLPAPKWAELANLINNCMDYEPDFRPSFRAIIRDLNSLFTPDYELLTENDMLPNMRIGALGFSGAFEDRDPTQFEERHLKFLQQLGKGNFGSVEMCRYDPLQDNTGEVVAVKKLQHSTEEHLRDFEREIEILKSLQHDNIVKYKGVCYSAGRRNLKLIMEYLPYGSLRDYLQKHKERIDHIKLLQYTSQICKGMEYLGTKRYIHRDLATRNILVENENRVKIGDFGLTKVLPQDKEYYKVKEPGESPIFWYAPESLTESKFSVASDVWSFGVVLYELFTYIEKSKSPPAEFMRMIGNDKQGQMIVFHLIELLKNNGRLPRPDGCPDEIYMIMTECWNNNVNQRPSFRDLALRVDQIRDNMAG

Row | Structure (SMILES) | IC50 (IKKε) [nM] | IC50 (hJAK2) [nM] | IC50 (TBK1) [nM]
1 | CN1CCN(c2cccc(Nc3ncnc(-c4ccc(OC5CCOCC5)c(C#N)c4)n3)c2)CC1 [Example 62, 5-(4-((3-(4-methylpiperazin-1-yl)phenyl)amino)-1,3,5-triazin-2-yl)-2-((tetrahydro-2H-pyran-4-yl)oxy)benzonitrile] | 3 | > 1000 | 5
2 | N#Cc1cc(-c2ncnc(Nc3ccc(N4CCN(C5COC5)CC4)cc3)n2)ccc1OC1CCN(C(=O)C2(O)CC2)CC1 [Example 70, 2-((1-(1-hydroxycyclopropanecarbonyl)piperidin-4-yl)oxy)-5-(4-((4-(4-(oxetan-3-yl)piperazin-1-yl)phenyl)amino)-1,3,5-triazin-2-yl)benzonitrile] | 70 | 918 | 28
3 | COc1ccc(Nc2ncnc(-c3ccc(OC4CCOCC4)c(C#N)c3)n2)cc1 [Example 72, 5-(4-((4-methoxyphenyl)amino)-1,3,5-triazin-2-yl)-2-((tetrahydro-2H-pyran-4-yl)oxy)benzonitrile] | 21 | > 1000 | 5
4 | Cn1nccc1Nc1ncnc(-c2ccc(OC3CCOCC3)c(C#N)c2)n1 [Example 73, 5-(4-((1-methyl-1H-pyrazol-5-yl)amino)-1,3,5-triazin-2-yl)-2-((tetrahydro-2H-pyran-4-yl)oxy)benzonitrile] | 202 | > 1000 | 90
5 | COc1ccc(Nc2ncnc(-c3ccc(OC4CCOCC4)c(C#N)c3)n2)cn1 [Example 77, 5-(4-((6-methoxypyridin-3-yl)amino)-1,3,5-triazin-2-yl)-2-((tetrahydro-2H-pyran-4-yl)oxy)benzonitrile] | 55 | > 1000 | 21
6 | N#Cc1cc(-c2ncnc(Nc3ccccc3)n2)ccc1OC1CCOCC1 [Example 79, 5-(4-(phenylamino)-1,3,5-triazin-2-yl)-2-((tetrahydro-2H-pyran-4-yl)oxy)benzonitrile] | 19 | > 1000 | 8
7 | N#Cc1cc(-c2ncnc(Nc3ccc(N4CCOCC4)cc3)n2)ccc1O[C@@H]1CCNC1 [Example 80] | 37 | 389 | 19
8 | N#Cc1cc(-c2ncnc(Nc3cccc(N4CCOCC4)c3)n2)ccc1O[C@@H]1CCNC1 [Example 82, (R)-5-(4-((3-morpholinophenyl)amino)-1,3,5-triazin-2-yl)-2-(pyrrolidin-3-yloxy)benzonitrile] | 53 | 641 | 94
9 | CC(C)NC(=O)c1ccc(Nc2ncnc(-c3ccc(O[C@@H]4CCNC4)c(C#N)c3)n2)cc1 [Example 84, (R)-4-((4-(3-cyano-4-(pyrrolidin-3-yloxy)phenyl)-1,3,5-triazin-2-yl)amino)-N-isopropylbenzamide] | 166 | 805 | 72
10 | N#Cc1cc(-c2ncnc(Nc3ccc(N4CCN(C5COC5)CC4)cc3)n2)ccc1F [Example 87, 2-Fluoro-5-(4-((4-(4-(oxetan-3-yl)piperazin-1-yl)phenyl)amino)-1,3,5-triazin-2-yl)benzonitrile] | > 1000 | > 1000 | 853
11 | N#Cc1cc(-c2ncnc(Nc3ccc(N4CCN(C5COC5)CC4)cc3)n2)ccc1O[C@@H]1CCN(C(=O)CCO)C1 [Example 89, (R)-2-((1-(3-hydroxypropanoyl)pyrrolidin-3-yl)oxy)-5-(4-((4-(4-(oxetan-3-yl)piperazin-1-yl)phenyl)amino)-1,3,5-triazin-2-yl)benzonitrile] | 52 | 359 | 16
12 | N#CCC(=O)N1CC[C@@H](Oc2ccc(-c3ncnc(Nc4ccc(N5CCN(C6COC6)CC5)cc4)n3)cc2C#N)C1 [Example 90, (R)-2-((1-(2-cyanoacetyl)pyrrolidin-3-yl)oxy)-5-(4-((4-(4-(oxetan-3-yl)piperazin-1-yl)phenyl)amino)-1,3,5-triazin-2-yl)benzonitrile] | 37 | 292 | 7
13 | N#Cc1cc(-c2ncnc(Nc3ccc(N4CCN(C5COC5)CC4)cc3)n2)ccc1O[C@@H]1CCN(C(=O)C2COC2)C1 [Example 92, (R)-5-(4-((4-(4-(oxetan-3-yl)piperazin-1-yl)phenyl)amino)-1,3,5-triazin-2-yl)-2-((1-(oxetane-3-carbonyl)pyrrolidin-3-yl)oxy)benzonitrile] | 197 | > 1000 | 45
14 | N#Cc1cc(-c2ncnc(Nc3ccc(N4CCN(C5COC5)CC4)cc3)n2)ccc1O[C@@H]1CCNC1 [Example 93, (R)-5-(4-((4-(4-(oxetan-3-yl)piperazin-1-yl)phenyl)amino)-1,3,5-triazin-2-yl)-2-(pyrrolidin-3-yloxy)benzonitrile] | 120 | 961 | 30
15 | N#Cc1cc(-c2ncnc(Nc3ccc(N4CCN(C5COC5)CC4)cc3)n2)ccc1O[C@@H]1CCN(C(=O)C2(O)CC2)C1 [Example 94, (R)-2-((1-(1-hydroxycyclopropanecarbonyl)pyrrolidin-3-yl)oxy)-5-(4-((4-(4-(oxetan-3-yl)piperazin-1-yl)phenyl)amino)-1,3,5-triazin-2-yl)benzonitrile] | 367 | > 1000 | 173

Further lines, results first:

Row | IC50 (IKKε) [nM] | IC50 (hJAK2) [nM] | IC50 (TBK1) [nM] | Structure (SMILES)
16 | 8 | 938 | 4 | N#Cc1cc(-c2ncnc(Nc3cccc(N4CCOCC4)c3)n2)ccc1OC1CCOCC1 [Example 63, 5-(4-((3-morpholinophenyl)amino)-1,3,5-triazin-2-yl)-2-((tetrahydro-2H-pyran-4-yl)oxy)benzonitrile]
17 | 11 | > 1000 | 4 | N#Cc1cc(-c2ncnc(Nc3ccc(C4CCN(CC(F)F)CC4)cc3)n2)ccc1OC1CCOCC1 [Example 65, 5-(4-((4-(1-(2,2-difluoroethyl)piperidin-4-yl)phenyl)amino)-1,3,5-triazin-2-yl)-2-((tetrahydro-2H-pyran-4-yl)oxy)benzonitrile]
18 | 5 | 345 | 2 | CS(=O)(=O)N1CCN(c2ccc(Nc3ncnc(-c4ccc(OC5CCOCC5)c(C#N)c4)n3)cc2)CC1 [Example 66, 5-(4-((4-(4-(methylsulfonyl)piperazin-1-yl)phenyl)amino)-1,3,5-triazin-2-yl)-2-((tetrahydro-2H-pyran-4-yl)oxy)benzonitrile]
19 | 6 | 802 | 2 | N#Cc1cc(-c2ncnc(Nc3ccc(N4CCN(C5COC5)CC4)cc3)n2)ccc1OC1CCOCC1 [Example 67, 5-(4-((4-(4-(oxetan-3-yl)piperazin-1-yl)phenyl)amino)-1,3,5-triazin-2-yl)-2-((tetrahydro-2H-pyran-4-yl)oxy)benzonitrile]
20 | 11 | 415 | 2 | N#Cc1cc(-c2ncnc(Nc3ccc(C(=O)C(F)(F)F)cc3)n2)ccc1OC1CCOCC1 [Example 68, 2-((tetrahydro-2H-pyran-4-yl)oxy)-5-(4-((4-(2,2,2-trifluoroacetyl)phenyl)amino)-1,3,5-triazin-2-yl)benzonitrile]
21 | 4 | > 1000 | 6 | N#Cc1cc(-c2ncnc(Nc3cccc(N4CCN(C5COC5)CC4)c3)n2)ccc1OC1CCOCC1 [Example 69, 5-(4-((3-(4-(oxetan-3-yl)piperazin-1-yl)phenyl)amino)-1,3,5-triazin-2-yl)-2-((tetrahydro-2H-pyran-4-yl)oxy)benzonitrile]
22 | 10 | > 1000 | 2 | COc1cc(Nc2ncnc(-c3ccc(OC4CCOCC4)c(C#N)c3)n2)ccc1C(=O)N1CCN(C2COC2)CC1 [Example 71, 5-(4-((3-methoxy-4-(4-(oxetan-3-yl)piperazine-1-carbonyl)phenyl)amino)-1,3,5-triazin-2-yl)-2-((tetrahydro-2H-pyran-4-yl)oxy)benzonitrile]
23 | 12 | > 1000 | 3 | N#Cc1cc(-c2ncnc(Nc3cc(F)c(N4CCN(C5COC5)CC4)c(F)c3)n2)ccc1OC1CCOCC1 [Example 74, 5-(4-((3,5-difluoro-4-(4-(oxetan-3-yl)piperazin-1-yl)phenyl)amino)-1,3,5-triazin-2-yl)-2-((tetrahydro-2H-pyran-4-yl)oxy)benzonitrile]
24 | 12 | 899 | 3 | N#Cc1cc(-c2ncnc(Nc3ccc(C(=O)NC4COC4)cc3)n2)ccc1OC1CCOCC1 [Example 75, 4-((4-(3-cyano-4-((tetrahydro-2H-pyran-4-yl)oxy)phenyl)-1,3,5-triazin-2-yl)amino)-N-(oxetan-3-yl)benzamide]
25 | 3 | 575 | 1 | CN1CCC(c2ccc(Nc3ncnc(-c4ccc(OC5CCOCC5)c(C#N)c4)n3)cc2)CC1 [Example 76, 5-(4-((4-(1-methylpiperidin-4-yl)phenyl)amino)-1,3,5-triazin-2-yl)-2-((tetrahydro-2H-pyran-4-yl)oxy)benzonitrile]
26 | 17 | > 1000 | 6 | COc1cccc(Nc2ncnc(-c3ccc(OC4CCOCC4)c(C#N)c3)n2)c1 [Example 78, 5-(4-((3-methoxyphenyl)amino)-1,3,5-triazin-2-yl)-2-((tetrahydro-2H-pyran-4-yl)oxy)benzonitrile]
27 | 14 | 604 | 8 | CC(C)NC(=O)c1ccc(Nc2ncnc(-c3ccc(O[C@@H]4CCN(C(=O)CO)C4)c(C#N)c3)n2)cc1 [Example 83, (R)-4-((4-(3-cyano-4-((1-(2-hydroxyacetyl)pyrrolidin-3-yl)oxy)phenyl)-1,3,5-triazin-2-yl)amino)-N-isopropylbenzamide]
28 | 4 | 459 | 8 | CN1CCN(c2ccc(Nc3ncnc(-c4ccc(O[C@@H]5CCN(C(=O)CO)C5)c(C#N)c4)n3)cc2)CC1 [Example 86, (R)-2-((1-(2-hydroxyacetyl)pyrrolidin-3-yl)oxy)-5-(4-((4-(4-methylpiperazin-1-yl)phenyl)amino)-1,3,5-triazin-2-yl)benzonitrile]
